Tests used:
[1] = Determination of Log P values of 99mTc-SAAC complexes; type: physicochemical; conditions: 99mTc complex; n-octanol / 25 mM pH=7.4 phosphate buffer
Protocol: Determination of Log P Values. The Log P values of the ^99mTc(I)-complexes were determined as follows. The ^99mTc-SAAC complexes were prepared and purified by RP-HPLC. The desired peak was collected and the sample was evaporated under a stream of nitrogen. The residue was dissolved in 25 μL of saline and placed in an equal volume of n-octanol (3 mL) and 25 mM pH=7.4 phosphate buffer (3 mL). The samples were mixed under vortex for 20 min, centrifuged at 8000 rpm for 5 min and three 100 μL aliquots were removed from both the aqueous and the organic layers for analysis on a gamma counter (Wallac 1282). Subsequently, 1 mL of the phosphate bufferTc-complex solution was removed and the process was repeated with fresh n-octanol, for a total number of six extractions to ensure full extraction of all the organic components. The partition coefficients were calculated using the equation: P=(activity concentration in n-octanol)/(activity concentration in aqueous layer). The Log P values reported were calculated from the average of the different measurements.

[2] = Rat tissue distribution of 99mTc complexes of example ligands (Table 6); type: in vivo, Sprague-Dawley Rats; conditions: 99mTc complex
Protocol: Rat Tissue Distribution Studies. The distribution and pharmacokinetics of selected ^99mTc-SAAC complexes were evaluated in normal male Sprague Dawley rats (180-200 grams) administered via the tail vein as a bolus injection (approximately 10 μCi/rat) in a constant volume of 0.1 ml. The animals (n=5 per time point) were euthanized by asphyxiation with carbon dioxide at 5, 30, 60, and 120 min post injection. Tissues (blood, heart, lungs, liver, spleen, kidneys, adrenals, stomach, intestines (with contents), testes, skeletal muscle, bone and brain) were dissected, excised, weighed wet, and counted in an automated γ-counter (LKB Model 1282, Wallac Oy, Finland). Tissue time-radioactivity levels expressed as percent injected dose per gram of tissue (% ID/g) was determined.
^99mTc Complexes of various example ligands in Sprague-Dawley Rats.

[3] = Complex stability: 99mTc cysteine and histidine challenge experiments; type: physicochemical; conditions: for time stable to excess histidine and cysteine challenges: 99mTc-SAAC complex, 37° C.
Protocol: 3. Tc-99m labeling. [^99mTc(CO)3(H2O)3]^+ was heated with [8-{N,N-di(pyridyl-2-methyl)}α-(fmoc)lysine] (DpK) in 0.5 mL (1 mg/mL) of methanol at 100° C. for 30 minutes. […] Labeling yields of >50% RCY, were achievable at levels as low as 2 μg/mL.
Complex stability: ^99mTc challenge experiments. The complexes were analyzed by HPLC for stability against cysteine and histidine challenge over time.

[4] = molecular target: CA-II (Homo sapiens (Human), UniProt P00918); assay: Inhibition of carbonic anhydrase enzyme activity (4-nitrophenyl acetate hydrolysis), CA-II; type: biochemical; conditions: purified human enzyme, pH 7.4, 25° C.
Protocol: (§1) Selective Inhibition of Carbonic Anhydrase Enzyme Activity. Compounds were tested for their ability to inhibit carbonic anhydrase isozymes II and IX in vitro. Purified human enzymes were from R&D Systems (Minneapolis, Minn.). The inhibition constants (Ki) for CA-II and CA-IX were determined by the method of Pocker and Stone. Initial rates of 4-nitrophenyl acetate hydrolysis catalyzed by the different carbonic anhydrase isozymes were measured spectrophotometrically at 400 nm. Solutions of substrate (1×10^−2 to 1×10^−6 M) were prepared in anhydrous acetonitrile. A molar extinction coefficient of 18,000 M^−1·cm^−1 was used for the 4-nitrophenolate formed by hydrolysis under the conditions of the experiment (9 mM Tris-HCl, 81 mM NaCl, pH 7.4, 25° C.). The enzyme concentrations were 100 nM for CA-IX and 30 nM for CA-II. Non-enzymatic hydrolysis rates, determined in the absence of added enzyme, were subtracted from the observed rates. […] Dilutions of inhibitor were added to enzyme solutions and preincubated for 10 min to allow for the formation of the E-I complex prior to the addition of substrate. Acetazolamide was included in all assays as positive controls.

[5] = molecular target: CA-IX (Homo sapiens (Human), UniProt Q16790); assay: Inhibition of carbonic anhydrase enzyme activity (4-nitrophenyl acetate hydrolysis), CA-IX; type: biochemical; conditions: purified human enzyme, pH 7.4, 25° C.
Protocol: as §1

| Molecule | Log P [1] | Blood tissue distribution ([2]; 5 min) [% ID/g] | Blood tissue distribution ([2]; 30 min) [% ID/g] | Blood tissue distribution ([2]; 60 min) [% ID/g] | Blood tissue distribution ([2]; 120 min) [% ID/g] | GI tissue distribution ([2]; 5 min) [% ID/g] | GI tissue distribution ([2]; 30 min) [% ID/g] | GI tissue distribution ([2]; 60 min) [% ID/g] | GI tissue distribution ([2]; 120 min) [% ID/g] | Kidney tissue distribution ([2]; 5 min) [% ID/g] | Kidney tissue distribution ([2]; 30 min) [% ID/g] | Kidney tissue distribution ([2]; 60 min) [% ID/g] | Kidney tissue distribution ([2]; 120 min) | Liver tissue distribution ([2]; 5 min) [% ID/g] | Liver tissue distribution ([2]; 30 min) | Liver tissue distribution ([2]; 60 min) | Liver tissue distribution ([2]; 120 min) [% ID/g] | Sk. Muscle tissue distribution ([2]; 5 min) [% ID/g] | Sk. Muscle tissue distribution ([2]; 30 min) [% ID/g] | Sk. Muscle tissue distribution ([2]; 60 min) [% ID/g] | other results |
| --- | --- | --- | --- | --- | --- | --- | --- | --- | --- | --- | --- | --- | --- | --- | --- | --- | --- | --- | --- | --- | --- |
| N[C@@H](CCCCN(Cc1ccccn1)Cc1ccccn1)C(=O)O [DpK, [ε-{N,N-di(pyridyl-2-methyl)}α-lysine], reference compound] | −1.89 | 0.58 ± 0.05 | 0.07 ± 0.01 | 0.03 ± 0.01 | 0.01 ± 0.00 | 0.49 ± 0.08 | 0.89 ± 0.07 | 1.46 ± 0.09 | 2.73 ± 0.57 | 6.05 ± 1.03 | 4.94 ± 0.11 | 4.93 ± 0.43 | 3.89 ± .042 % ID/g | 3.36 ± 0.44 | 2.75 ± .011 % ID/g | 2.59 ± 0.08 % ID/g | 2.20 ± 0.06 | 0.18 ± 0.02 | 0.03 ± 0.00 | 0.03 ± 0.01 | Sk. Muscle tissue distribution ([2]; 120 min): 0.01 ± 0.00 % ID/g; degradation by HPLC after cysteine or histidine challenge ([3]; 100 mM cysteine or histidine in PBS pH 7.2, 37° C., 18 h): no degradation; time stable to excess histidine and cysteine challenges [3]: more than 18 hours |
| N[C@@H](CCCCN(Cc1nccs1)Cc1nccs1)C(=O)O [DtK, (dithiazole)lysine] | −2.40 | 3.32 ± 0.82 | 2.33 ± 0.26 | 1.4 ± 0.07 | 0.76 ± 0.12 | 0.3 ± 0.15 | 0.59 ± 0.13 | 0.73 ± 0.29 | 0.87 ± 0.2 | 3.26 ± 1.04 | 4.71 ± 0.41 | 4.78 ± 0.14 | 4.83 ± 0.41 % ID/g | 1.7 ± 0.42 | 1.93 ± 0.15 % ID/g | 2.05 ± .041 % ID/g | 2.61 ± 0.31 | 0.16 ± 0.05 | 0.16 ± 0.01 | 0.15 ± 0.02 | Sk. Muscle tissue distribution ([2]; 120 min): 0.12 ± 0.01 % ID/g; time stable to excess histidine and cysteine challenges [3]: more than 18 hours |
| [Re(CO)3][2-((pyridin-2-ylmethyl)(4-sulfamoylphenethyl)amino)acetic acid] [Compound 23-Re] |  |  |  |  |  |  |  |  |  |  |  |  |  |  |  |  |  |  |  |  | IC50 [4]: 652 nM; IC50 [5]: 564 nM |

— patent publication US8562945B2, “Technetium- and rhenium-bis(heteroaryl) complexes and methods of use thereof” (Molecular Insight Pharmaceuticals, Inc., priority 2008, dated 2013)
